SMILES strings stand for the structures. Activity calls are given as the source filed them.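 How the source made its calls: active means fitted curve drops below -35% activity at a concentration within twice the top valid tested dose; inconclusive means no clear call, values can overlap the other calls; inactive means signal rising instead of falling, among other cases.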

A short description of the first test: ATP-based viability loss in HepG2 cells – cell-based, CellTiter-Glo luminescence, cherry-pick, set 3, cytotoxicity control, dose response (AID 720589). Particulars: HepG2 viability, ATP luminescence (CellTiter-Glo), 72 h; at 0.011 µM; stronger effect = lower value; 0% = untreated, negative = ATP loss. A general note: ATP-based viability assays read luminescence as a measure of living cells.
For the molecule `N#C[C@@H]1[C@H](c2ccc(C#Cc3ccc(F)cc3)cc2)[C@@H](CO)N1C(=O)Nc1ccc(F)cc1`, the max activity is -24.6% (inactive).
Still for that read-out and setting: to `CCN1CCN(/C=N/c2nc3c(s2)CCCC3)CC1` belongs -25.3% (inactive); to `COc1ccccc1/C=C1\SC(=S)N(CCC(=O)Nc2cc(C)on2)C1=O`, -26.3% (inactive); to `CCOc1ccc(-c2cc(CCCC(=O)N3CCN(c4ccc(OC)cc4)CC3)no2)cc1`, -25.4% (inactive).
Same read-out and setting: to `Cc1ccc(N=C2NC(=O)/C(=C\c3cccs3)S2)cc1C` belongs -17.8% (inactive); to `Cc1csc(NC(=O)CCc2c(C)nc3cc(-c4ccc(Cl)cc4)nn3c2C)n1`, 11.5% (inactive).
Same read-out and setting: for `COc1cc(C(c2c(C)[nH][nH]c2=O)c2c(C)[nH][nH]c2=O)ccc1OC(C)C` the value was 22.1% (inactive); for `CCN1C/C(=C/c2ccc(OC)c(O)c2)C(=O)/C(=C/c2ccc(OC)c(O)c2)C1`, -39.6% (inactive); for `COc1ccccc1N(/N=C1\Sc2ccccc2C1=O)C(C)=O`, -37.6% (inactive).

Staying with this test, now noted: HepG2 viability, ATP luminescence (CellTiter-Glo), 72 h; at 0.035 µM; stronger effect = lower value; 0% = untreated, negative = ATP loss.
Consider `S=C(NCCN1CCOCC1)Nc1ccccc1Cl`, for which the max activity was -36.4% (inactive).
Same read-out and setting: to `COc1ccc(CCCNC(=O)C2Cc3c(-c4ccc5c(c4)OCO5)ccnc3O2)cc1` (stereo not drawn) belongs -34% (inactive).
On to `COC(=O)C[C@@H]1CC[C@@H]2[C@H](COc3ccc(NC(=O)c4ccc(F)c(F)c4)cc3C(=O)N2C)O1`, for which the max activity was -21% (inactive).
As to `Nc1ccc2oc(-c3cc(Br)ccc3Cl)nc2c1`, the max activity is -30.5% (inactive).
Same read-out and setting: for `O=C(CCCN1C(=O)/C(=C/c2ccccc2Cl)SC1=S)NNC(=O)c1ccc(Cl)cc1Cl` the value was -21.5% (inactive); for `CC(=O)c1ccc(N=Nc2ccc(C)cc2)cc1`, -7.42% (inactive); for `Cc1c(Cl)cnc(NC(=O)COC(=O)c2ccc3ncsc3c2)c1Cl`, -18.7% (inactive).
The same measure, in the same setting: for `O=c1c2ccccc2oc2ccc(C#CC3(O)CCCCC3)cc12` the value was -33.7% (inactive).

The same test, now with this note: HepG2 viability, ATP luminescence (CellTiter-Glo), 72 h; at 0.1 µM; stronger effect = lower value; 0% = untreated, negative = ATP loss.
As for `Cc1[nH]c(=S)sc1Cc1ccc(Cl)c(Cl)c1`, the max activity is -20.8% (inactive).
Turning to `Cc1cc(Br)ccc1N=C1C(=O)Nc2ccccc21`, the max activity is -28.8% (inactive).
On the same count and under the same terms, to `Cc1ccc(S(=O)(=O)N(C)C[C@@H]2Oc3cc(C#Cc4ccncc4)ccc3S(=O)(=O)N([C@@H](C)CO)C[C@H]2C)cc1` belongs -24.6% (inactive); to `COC(=O)C(CC#Cc1ccc2c(c1)[C@]1(C(=O)N2)[C@H](c2ccc(OCCO)cc2)N2[C@H](c3ccccc3)[C@H](c3ccccc3)OC(=O)[C@H]2[C@@H]1C(=O)N1CCN(c2ncccn2)CC1)C(=O)OC`, -11.5% (inactive).
For `Cc1nn(Cc2ccccc2Cl)c2sc(C(=O)Nc3ccccc3N3CCOCC3)cc12`, the max activity is 13.3% (inactive).
Still for that read-out and setting: for `CN(C(=O)COC(=O)c1cc(-c2ccccc2Cl)nc2ccccc12)C1CCS(=O)(=O)C1` (stereo not drawn) the value was -27.5% (inactive).
Same read-out and setting: to `COc1ccc(OC)c(-c2cc(C(F)(F)F)c3c(n2)sc2c(O)cc(=O)[nH]c23)c1` belongs -37% (inactive); to `Cc1sc2nc(CN3CCC(C)CC3)nc(Cl)c2c1C`, 16.4% (inactive); to `COC(=O)Cc1ccc(NC(=O)c2ccccc2Cl)cc1`, -26.9% (inactive).
As to `CCOc1ccc(N=C2C(=O)Nc3ccc(C)c(Br)c32)cc1`, the max activity is 11.1% (inactive).

Still in this test, the particulars now being: HepG2 viability, ATP luminescence (CellTiter-Glo), 72 h; at 0.3 µM; stronger effect = lower value; 0% = untreated, negative = ATP loss.
As to `O=c1c2ccccc2oc2cc(C#CC3(O)CCCCC3)ccc12`, the max activity is 13.9% (inactive).
The same measure, in the same setting: for `COc1cc(/C=C/C(=O)CC(=O)/C=C/c2ccc(O)c(OC)c2)ccc1O` the value was -27.1% (inactive); for `COc1ccc(C2=Nn3c(nnc3-c3ccccc3F)SC2)cc1OC1CCOC1` (stereo not drawn), -28.9% (inactive).
Still for that read-out and setting: to `CCOc1ccc(NC(=O)C(=O)N/N=C\c2ccc(CNS(=O)(=O)c3ccccc3)o2)cc1` belongs -36.6% (inactive); to `Cc1ccccc1NC(=O)C(=Cc1ccc(C(=O)O)cc1)C(=O)Nc1ccccc1C`, -13.1% (inactive).

Staying with this test, now noted: HepG2 viability, ATP luminescence (CellTiter-Glo), 72 h; at 0.9 µM; stronger effect = lower value; 0% = untreated, negative = ATP loss.
`COc1cc(/C=N\Nc2nc(-c3ccc(C)cc3)c(NC(C)=O)s2)ccc1O`: the max activity was -20.6% (inactive).

Still in this test, the particulars now being: HepG2 viability, ATP luminescence (CellTiter-Glo), 72 h; at 2.85 µM; stronger effect = lower value; 0% = untreated, negative = ATP loss.
Regarding `COc1cc(-c2coc3c(C(=O)NCc4ccc(C(F)(F)F)cc4)cccc23)ccc1O`, the max activity was -25.6% (inactive).
For the molecule `C[C@H](CO)N1C[C@H](C)[C@H](CN(C)Cc2ccc(C(=O)Nc3ccccc3N)cc2)Oc2ccc(NS(=O)(=O)c3cccs3)cc2C1=O`, the max activity is -29.1% (inactive).
Still for that read-out and setting: for `CN(C)c1ccc2c(c1)[C@@H]1C[C@@H](CC(=O)NCc3ccc(Oc4ccccc4)cc3)O[C@H](CO)[C@@H]1O2` the value was -31.7% (inactive); for `Cc1ccsc1/C=N/Nc1cccc(C(=O)O)c1`, -32.4% (inactive); for `N#C[C@H]1[C@H](c2ccc(C#Cc3ccccc3F)cc2)[C@@H](CO)N1C(=O)C1CCOCC1`, -21.8% (inactive).
Same read-out and setting: to `C[C@@H]1CN([C@H](C)CO)S(=O)(=O)c2ccc(C#CC3CC3)cc2O[C@@H]1CN(C)Cc1ccccc1F` belongs -22% (inactive); to `C[C@@H]1CN([C@H](C)CO)C(=O)c2cc(C#CCc3ccccc3)cnc2O[C@@H]1CN(C)Cc1cccc(F)c1`, -31.8% (inactive); to `O=c1[nH]c(=O)n([C@H]2C[C@H](O)[C@@H](CO)O2)cc1F`, -50.3% (inactive).
Still for that read-out and setting: for `CC(Oc1cccc(Cl)c1)C(=O)NCCCCc1ccccc1` (stereo not drawn) the value was 18.7% (inactive); for `N#C[C@@H]1[C@H](c2ccc(C#Cc3ccccc3F)cc2)[C@@H](CO)N1C(=O)c1cccnc1`, -22% (inactive); for `O=C1c2ccc3c4c(ccc(c24)C(=O)N1c1cccc(O)c1)C(=O)N(c1cccc(O)c1)C3=O`, -25.5% (inactive).
`CCOC(=O)Cc1csc(NC(=S)NC(=O)c2ccc(C)cc2)n1`: the max activity was 11.3% (inactive).

Still in this test, the particulars now being: HepG2 viability, ATP luminescence (CellTiter-Glo), 72 h; at 3 µM; stronger effect = lower value; 0% = untreated, negative = ATP loss.
`CCNC(=O)c1cc2c(c(-c3cccc(-c4cccc(OC)c4)c3)n1)[C@H](CCO)N([S@@](=O)C(C)(C)C)C2`: the max activity is -28.9% (inactive).

Still in this test, the particulars now being: HepG2 viability, ATP luminescence (CellTiter-Glo), 72 h; at 8 µM; stronger effect = lower value; 0% = untreated, negative = ATP loss.
For `COc1ccc(OC)c(/C=C/c2ccnc3ccccc23)c1`, the max activity was -41.5% (inactive).
Take `CN(C)Cc1c(O)ccc2c1O/C(=C\C=C\c1ccccc1)C2=O`: the max activity is -26.2% (inactive).
On the same count and under the same terms, for `Cc1ccc2c(=O)n3c(nc2c1)C(Cc1ccc(O)cc1)NC(=O)c1cc2ccccc2cc1-3` (stereo not drawn) the value was -16.9% (inactive); for `COc1ccc2oc(-c3ccccc3)cc(=O)c2c1`, 25.1% (inactive).
With `COc1ccc(C2=Nn3c([n+](C)c4ccccc43)SC2)cc1`, the max activity was -28.7% (inactive).

The same test, now with this note: HepG2 viability, ATP luminescence (CellTiter-Glo), 72 h; at 23.5 µM; stronger effect = lower value; 0% = untreated, negative = ATP loss.
For the molecule `C[C@H](CO)N1C[C@H](C)[C@H](CN(C)Cc2ccccc2)Oc2ccc(NC(=O)CCCCCC(=O)Nc3ccccc3N)cc2CC1=O`, the max activity was -23.9% (inactive).
The same measure, in the same setting: to `O=S(=O)(c1ccc(F)cc1)N1C[C@H]2[C@@H](c3ccccc31)[C@H](CO)N2Cc1ccccc1Cl` belongs -21.9% (inactive).

The test is the same for the next values; noted with them: HepG2 viability, ATP luminescence (CellTiter-Glo), 72 h; at 26 µM; stronger effect = lower value; 0% = untreated, negative = ATP loss.
As for `C#CCOCCOCCOCCNc1nc(N2CCN(C(=O)CCCCCCCCCCNC(=O)Cn3cc(C[C@@H](C)O)nn3)CC2)nc(N2CCN(C(=O)CCCCCCCCCCNC(=O)[C@H](CO)n3cc(CCCSC)nn3)CC2)n1`, the max activity was 39.2% (inactive).
On the same count and under the same terms, to `N#C[C@H]1N[C@H](CO)[C@H]1c1ccc(C#Cc2ccc(F)cc2)cc1` belongs -31.2% (inactive); to `C[C@@H]1CN([C@@H](C)CO)C(=O)Cc2cc(N(C)C)ccc2O[C@@H]1CN(C)Cc1ccccc1`, -20.7% (inactive).
For the molecule `CCOc1ccc(C(c2c(NC(=O)c3ccccc3)sc(C)c2C)N2CCN(CCO)CC2)cc1` (stereo not drawn), the max activity was -11.9% (inactive).
Still for that read-out and setting: for `COC(=O)Cc1[nH]n(-c2nc3ccccc3s2)c(=O)c1C(C)=Nc1ccc(OC)cc1` the value was -20.2% (inactive); for `C=CCOc1ccccc1C(=O)/C=C1/C(=O)Nc2ccccc21`, -31.5% (inactive); for `Cc1ccc(/C=N/Nc2ccc3ccccc3n2)o1`, -46.4% (inactive).
The same measure, in the same setting: for `COc1cc2oc3cc(C#Cc4ccc(N)cc4)ccc3c(=O)c2cc1OC` the value was -39.4% (inactive).
Still for that read-out and setting: for `O=C(O)c1ccc(N/N=C/c2ccc3nccnc3c2)cc1` the value was -27.1% (inactive).
Turning to `CC(NC(=O)c1ccco1)c1nc(-c2ccc(C(C)(C)C)cc2)no1` (stereo not drawn), the max activity was -24.1% (inactive).
Same read-out and setting: to `CN1c2ccc(-c3ccc(C#N)cc3)cc2[C@H]2[C@H](CCN2S(=O)(=O)c2cccc(F)c2)[C@@H]1CO` belongs 33.3% (inactive); to `CN1C(=O)c2cc(NC(=O)c3ccc(Cl)cc3)ccc2OC[C@@H]2O[C@@H](CC(=O)NCc3cccc(F)c3)CC[C@H]21`, -22.6% (inactive).
Same read-out and setting: to `N#CC1=C(N)Oc2cc(N)ccc2C1c1cccc(Br)c1` (stereo not drawn) belongs -27% (inactive); to `CCCC[C@@H]1Cc2[nH][nH]c(=O)c2[C@H](c2ccc3ccccc3c2)O1`, 22% (inactive).
The same measure, in the same setting: for `COc1cc(OC)cc(-c2cc3nc(C)c(CCC(=O)O)c(C)n3n2)c1` the value was -9.81% (inactive).

The values are drawn from PubChem BioAssay AID720589 (Broad Institute, 2013).
